Among the data in ChEMBL document CHEMBL1126344, “Substituted penta- and hexapeptides as potent inhibitors of herpes simplex virus type 2 ribonucleotide reductase” (Bioorg Med Chem Lett, 1992) are IC50 and Relative potency values, retold here.

Non-standard residues stand in square brackets, D forms with d. Residues, ends and D or L forms follow the SMILES beside them. *: point of attachment. Dibenzylacetyl = O=C(C(Cc1ccccc1)Cc1ccccc1)*; NMeY = CN[C@@H](Cc1ccc(O)cc1)C(=O)O; tBuAla = CC(C)(C)C[C@H](N)C(=O)O; NBn2 = c1ccc(CN(Cc2ccccc2)*)cc1; AllylGly = C=CC[C@H](N)C(=O)O; Morpholide = C1CN(*)CCO1; Pyrrolidide = C1CCN(*)C1; NHBn = c1ccc(CN*)cc1 Bounds are passed on as bounds.

A word on the IC50: it is the midpoint of a concentration-inhibition curve. Lower therefore signals higher potency.

Experiment [1] in a line: The compound was tested in vitro for inhibitory activity against Herpes Simplex Virus type 2 ribonucleotide reductase. On the set-up: species or system Human alphaherpesvirus 2.
Experiment [2] in a line: Inhibitory activity of YAGAVVNDL against Herpes Simplex Virus type 2 (HSV-2) ribonucleotide reductase determined as control. On the set-up: species or system Human alphaherpesvirus 2.
For experiment [3], the system named is Human alphaherpesvirus 2. The experiment in a line: Relative potency to that of YAGAVVNDL against Herpes Simplex Virus type 2 ribonucleotide reductase.

As to `CC(C)C[C@H](NC(=O)[C@H](CC(=O)O)NC(=O)[C@H](CC(N)=O)NC(=O)[C@@H](NC(=O)[C@@H](NC(=O)CC(c1ccccc1)c1ccccc1)C(C)C)C(C)C)C(=O)O`, the IC50 in experiment [1] came out at 10 µM; in experiment [2] it was 60 µM. The same compound had a Relative potency in experiment [3] of 6.
As to `CC(C)C[C@H](NC(=O)[C@H](CC(=O)O)NC(=O)[C@H](CC(N)=O)NC(=O)[C@@H](NC(=O)[C@@H](NC(=O)C(C)C)C(C)C)C(C)C)C(=O)O`, the IC50 in experiment [1] worked out at 30 µM; in experiment [2], 5 µM. Also, in experiment [3], the Relative potency is 0.17.
Regarding `CC(C)C[C@H](NC(=O)[C@H](CC(=O)O)NC(=O)[C@H](CC(N)=O)NC(=O)[C@@H](NC(=O)[C@@H](NC(=O)C(Cc1ccccc1)Cc1ccccc1)C(C)C)C(C)C)C(=O)O`, the IC50 in experiment [1] is 0.5 µM; in experiment [2], 19 µM. For the same compound, the Relative potency in experiment [3] worked out at 38.
`CC(C)C[C@H](NC(=O)[C@H](CC(=O)O)NC(=O)[C@H](CC(N)=O)NC(=O)[C@@H](NC(=O)[C@@H](NC(=O)CCc1ccccc1)C(C)C)C(C)C)C(=O)O`: the IC50 turned out to be 11 µM in experiment [1] and 17 µM in experiment [2]. Also, the Relative potency in experiment [3] was determined as 1.5.
For the compound `CC(C)C[C@H](NC(=O)[C@H](CC(=O)O)NC(=O)[C@H](CC(N)=O)NC(=O)[C@@H](NC(=O)[C@@H](NC(=O)N(Cc1ccccc1)Cc1ccccc1)C(C)C)C(C)C)C(=O)O`, the IC50 in experiment [1] was 11 µM; in experiment [2] it was 24 µM. The compound further displayed a Relative potency in experiment [3] of 2.2.
As to `CC(C)C[C@H](NC(=O)[C@H](CC(=O)O)NC(=O)[C@H](CC(N)=O)NC(=O)[C@@H](NC(=O)[C@@H](NC(=O)N(c1ccccc1)c1ccccc1)C(C)C)C(C)C)C(=O)O`, the half-maximal inhibitory concentration (IC50) in experiment [1] turned out to be 170 µM; in experiment [2] it was 24 µM. Besides, the Relative potency in experiment [3] worked out at 0.14.
As to `CC(C)C[C@H](NC(=O)[C@H](CC(=O)O)NC(=O)[C@H](CC(N)=O)NC(=O)[C@@H](NC(=O)[C@@H](NC(=O)CCc1ccc(O)cc1)C(C)C)C(C)C)C(=O)O`, the IC50 in experiment [1] was determined as 21 µM; in experiment [2], 20 µM. For the same compound, the Relative potency in experiment [3] amounted to 1.
With `CC(C)C[C@H](NC(=O)[C@H](CC(=O)O)NC(=O)[C@H](CC(N)=O)NC(=O)[C@@H](NC(=O)[C@@H](NC(=O)C(c1ccccc1)c1ccccc1)C(C)C)C(C)C)C(=O)O`, the figures for the IC50 in experiment [1] and in experiment [2] were 90 µM and 24 µM, respectively. The compound also gave a Relative potency in experiment [3] of 0.27.
Regarding `CC(C)C[C@H](NC(=O)[C@H](CC(=O)O)NC(=O)[C@H](CC(N)=O)NC(=O)[C@@H](NC(=O)[C@@H](NC(=O)C(Cc1ccc(O)cc1)Cc1ccc(O)cc1)C(C)C)C(C)C)C(=O)O`, the figures for the IC50 in experiment [1] and in experiment [2] were 6.5 µM and 35 µM, respectively. Moreover, in experiment [3], the Relative potency was 5.4.
As to `CC(C)C[C@H](NC(=O)[C@H](CC(=O)O)NC(=O)[C@H](CC(N)=O)NC(=O)[C@@H](NC(=O)[C@@H](NC(=O)C(C)(C)C)C(C)C)C(C)C)C(=O)O`, the IC50 in experiment [1] is 21 µM; in experiment [2] it was 5 µM. This compound also yielded a Relative potency in experiment [3] of 0.24.
In the case of `CC(C)C[C@H](NC(=O)[C@H](CC(=O)O)NC(=O)[C@H](CC(=O)NCc1ccccc1)NC(=O)[C@@H](NC(=O)[C@@H](NC(=O)C(Cc1ccccc1)Cc1ccccc1)C(C)C)C(C)C)C(=O)O` (Dibenzylacetyl-VVD(NHBn)DL-OH), the values for the IC50 in experiment [1] and in experiment [2] were 0.4 µM and 22 µM, respectively. Also, in experiment [3], the Relative potency worked out at 55.
The matching figures for `CC(C)[C@H](NC(=O)C(Cc1ccccc1)Cc1ccccc1)C(=O)N[C@H](C(=O)N[C@@H](CC(=O)NCc1ccccc1)C(=O)N[C@@H](CC(=O)O)C(=O)N[C@@H](CC(C)(C)C)C(=O)O)C(C)C` (Dibenzylacetyl-VVD(NHBn)D[tBuAla]-OH): 0.2 µM, 10 µM and 50.
Taken in the same sequence, the figures for `CC(C)[C@H](NC(=O)C(Cc1ccccc1)Cc1ccccc1)C(=O)N[C@H](C(=O)N[C@@H](CC(=O)N(C)C)C(=O)N[C@@H](CC(=O)O)C(=O)N[C@@H](CC(C)(C)C)C(=O)O)C(C)C` (Dibenzylacetyl-VVD(NMe2)D[tBuAla]-OH) were 0.3 µM, 21 µM and 70.
Taken in the same sequence, the figures for `CC(C)[C@H](NC(=O)C(Cc1ccccc1)Cc1ccccc1)C(=O)N[C@H](C(=O)N[C@@H](CC(N)=O)C(=O)N[C@@H](CC(=O)O)C(=O)N[C@@H](CC(C)(C)C)C(=O)O)C(C)C` (Dibenzylacetyl-VVND[tBuAla]-OH) were 0.1 µM, 12 µM and 120.
In the case of `CC(C)C[C@H](NC(=O)[C@H](CC(=O)O)NC(=O)[C@H](CC(=O)N(C)C)NC(=O)[C@@H](NC(=O)[C@@H](NC(=O)[C@@H](N)CC(=O)O)C(C)C)C(C)C)C(=O)O` (H-DVVD(NMe2)DL-OH), the IC50 in experiment [1] amounted to 0.15 µM; in experiment [2], 9.5 µM. The same compound had a Relative potency in experiment [3] of 63.
As to `CC(C)C[C@H](NC(=O)[C@H](CC(=O)O)NC(=O)[C@H](CC(=O)N1CCCC1)NC(=O)[C@@H](NC(=O)[C@@H](NC(=O)[C@@H](N)CC(=O)O)C(C)C)C(C)C)C(=O)O` (H-DVVD(Pyrrolidide)DL-OH), the IC50 in experiment [1] was determined as 1 µM; in experiment [2], 32 µM. In experiment [3], this compound had a Relative potency of 32.
Taken in the same sequence, the figures for `COC(=O)C[C@H](NC(=O)[C@@H](NC(=O)[C@@H](NC(=O)[C@@H](N)Cc1ccccc1)C(C)C)C(C)C)C(=O)N[C@@H](CC(=O)O)C(=O)N[C@@H](CC(C)C)C(=O)O` (H-FVVD(OMe)DL-OH) were 2 µM, 27 µM and 14.
In the case of `CC(C)C[C@H](NC(=O)[C@H](CC(=O)O)NC(=O)[C@H](CC(=O)N1CCOCC1)NC(=O)[C@@H](NC(=O)[C@@H](NC(=O)[C@@H](N)Cc1ccc(O)cc1)C(C)C)C(C)C)C(=O)O` (H-YVVD(Morpholide)DL-OH), the figures for the IC50 in experiment [1] and in experiment [2] were 0.6 µM and 22 µM, respectively. The same compound registered a Relative potency in experiment [3] of 36.
In the case of `CC(C)C[C@H](NC(=O)[C@H](CC(=O)O)NC(=O)[C@H](CC(=O)N(Cc1ccccc1)Cc1ccccc1)NC(=O)[C@@H](NC(=O)[C@@H](NC(=O)[C@@H](N)Cc1ccc(O)cc1)C(C)C)C(C)C)C(=O)O` (H-YVVD(NBn2)DL-OH), the IC50 in experiment [1] was 2 µM; in experiment [2] it was 25 µM. Besides, in experiment [3], the Relative potency was found to be 13.
In the case of `CC(C)C[C@H](NC(=O)[C@H](CC(=O)O)NC(=O)[C@H](CC(=O)NCc1ccccc1)NC(=O)[C@@H](NC(=O)[C@@H](NC(=O)[C@@H](N)Cc1ccc(O)cc1)C(C)C)C(C)C)C(=O)O` (H-YVVD(NHBn)DL-OH), the IC50 in experiment [1] amounted to 4 µM; in experiment [2], 22 µM. In experiment [3], this compound came in with a Relative potency of 5.5.
`CNC(=O)C[C@H](NC(=O)[C@@H](NC(=O)[C@@H](NC(=O)[C@@H](N)Cc1ccc(O)cc1)C(C)C)C(C)C)C(=O)N[C@@H](CC(=O)O)C(=O)N[C@@H](CC(C)C)C(=O)O` (H-YVVD(NHMe)DL-OH): the IC50 is 2 µM in experiment [1] and 21 µM in experiment [2]. The Relative potency in experiment [3] was found to be 11.
`CC(C)C[C@H](NC(=O)[C@H](CC(=O)O)NC(=O)[C@H](CC(=O)N(C)C)NC(=O)[C@@H](NC(=O)[C@@H](NC(=O)[C@@H](N)Cc1ccc(O)cc1)C(C)C)C(C)C)C(=O)O` (H-YVVD(NMe2)DL-OH): the IC50 in experiment [1] is 0.3 µM; in experiment [2] it was 27 µM. The compound also came in with a Relative potency in experiment [3] of 90.
For the compound `CC(C)[C@H](NC(=O)[C@@H](NC(=O)[C@@H](N)Cc1ccc(O)cc1)C(C)C)C(=O)N[C@@H](CC(=O)N(C)C)C(=O)N[C@@H](CC(=O)O)C(=O)N[C@@H](CC(C)(C)C)C(=O)O` (H-YVVD(NMe2)D[tBuAla]-OH), the IC50 in experiment [1] worked out at 0.2 µM; in experiment [2] it was 22 µM. The compound further yielded a Relative potency in experiment [3] of 110.
Regarding `C=CC[C@H](NC(=O)[C@H](CC(=O)O)NC(=O)[C@H](CC(N)=O)NC(=O)[C@@H](NC(=O)[C@@H](NC(=O)[C@@H](N)Cc1ccc(O)cc1)C(C)C)C(C)C)C(=O)O` (H-YVVND[AllylGly]-OH), the results for the half-maximal inhibitory concentration (IC50) in experiment [1] and in experiment [2] were > 430 µM and 22 µM, respectively.
In experiment [2], `CN[C@@H](Cc1ccc(O)cc1)C(=O)N[C@H](C(=O)N[C@H](C(=O)N[C@@H](CC(N)=O)C(=O)N[C@@H](CC(=O)O)C(=O)N[C@@H](CC(C)C)C(=O)O)C(C)C)C(C)C` (H-[NMeY]VVNDL-OH) had an IC50 of 15 µM.
As to `CC(C)C[C@H](NC(=O)[C@H](CC(=O)O)NC(=O)[C@H](CC(N)=O)NC(=O)[C@@H](NC(=O)[C@@H](NC(=O)[C@@](C)(N)Cc1ccc(O)cc1)C(C)C)C(C)C)C(=O)O` (stereo in doubt; form 1) [listing 1 of 2 here], the IC50 in experiment [1] was found to be 58 µM; in experiment [2], 30 µM.
`CC(C)C[C@H](NC(=O)[C@H](CC(=O)O)NC(=O)[C@H](CC(N)=O)NC(=O)[C@@H](NC(=O)[C@@H](NC(=O)C(Cc1ccccc1)Cc1ccc(O)cc1)C(C)C)C(C)C)C(=O)O` (stereo in doubt; form 1) showed a Relative potency in experiment [3] of 21.
`CC(C)C[C@H](NC(=O)[C@H](CC(=O)O)NC(=O)[C@H](CC(N)=O)NC(=O)[C@@H](NC(=O)[C@@H](NC(=O)[C@@](C)(N)Cc1ccc(O)cc1)C(C)C)C(C)C)C(=O)O` (stereo in doubt; form 1) [listing 2 of 2 here] gave a Relative potency in experiment [3] of 0.52.
With `CC(C)C[C@H](NC(=O)[C@H](CC(=O)O)NC(=O)[C@H](CC(N)=O)NC(=O)[C@@H](NC(=O)[C@@H](NC(=O)C(Cc1ccccc1)Cc1ccc(O)cc1)C(C)C)C(C)C)C(=O)O` (stereo in doubt; form 2) [listing 1 of 2 here], the values for the IC50 in experiment [1] and in experiment [2] were 1.5 µM and 9 µM, respectively.
As to `CC(C)C[C@H](NC(=O)[C@H](CC(=O)O)NC(=O)[C@H](CC(N)=O)NC(=O)[C@@H](NC(=O)[C@@H](NC(=O)[C@@](C)(N)Cc1ccc(O)cc1)C(C)C)C(C)C)C(=O)O` (stereo in doubt; form 2) [listing 1 of 2 here], the IC50 in experiment [1] stood at 120 µM.
Turning to `CC(C)C[C@H](NC(=O)[C@H](CC(=O)O)NC(=O)[C@H](CC(N)=O)NC(=O)[C@@H](NC(=O)[C@@H](NC(=O)C(Cc1ccccc1)Cc1ccc(O)cc1)C(C)C)C(C)C)C(=O)O` (stereo in doubt; form 2) [listing 2 of 2 here], the Relative potency in experiment [3] stood at 6.
Regarding `CC(C)C[C@H](NC(=O)[C@H](CC(=O)O)NC(=O)[C@H](CC(N)=O)NC(=O)[C@@H](NC(=O)[C@@H](NC(=O)[C@@](C)(N)Cc1ccc(O)cc1)C(C)C)C(C)C)C(=O)O` (stereo in doubt; form 2) [listing 2 of 2 here], the Relative potency in experiment [3] came to 0.25.
